Source: patent publication US20130014428A1, “METHODS OF MONITORING AND CONTROLLING THE WALNUT TWIG BEETLE, PITYOPHTHORUS JUGLANDIS” (The United States of America as Represented by the …, priority 2011, published 2013)

Experiments:
WTB [1] = assay: Trap type: four Lindgren funnel traps and intercept panel trap baited with X; format: in vivo, Pityophthorus juglandis; conditions: for trap catches, female WTB / trap catches, male WTB: 15-80 mg/d
Method: In another set of experiments, the flight response of WTB to four types of Lindgren funnel traps (Contech) and an intercept panel trap (Alpha Scents Inc., Portland Oreg., product # AST0031) was tested at Wolfskill Experimental Orchards in mid-summer. Each trap was baited with the commercial formulation of 3-methyl-2-buten-1-ol (15-80 mg/d, Contech) hung inside the middle funnel of each funnel trap or in a recess in the middle of the cross vane panels of the panel trap. Each trap cup was filled with propylene glycol as described above and the traps were suspended from the top of a 3 m metal conduit pole. Three blocks of traps were installed and trap catches were collected daily when the flight activity was high. The five treatments were re-randomized among the five trap stations within each of the three blocks each time that the traps were emptied.
Statistical Analyses. Analyses of treatment effects for the tests of trap type were performed by using Friedman's non-parametric analysis of variance or a sign test, depending on the number of treatments. (See Zar, J. H. 2010. Biostatistical Analysis. 5th ed. Pearson Prentice Hall, Englewood Cliffs, N.J.) Analysis of treatment effects for the Rain•X experiment was performed by using a Wilcoxon paired sample test. Id. Multiple comparisons for experiments with more than two treatments were performed with an a posteriori Nemenyi test with experimentwise α=0.05. Id. In all cases, male and female WTB were analyzed separately. Proportions of female WTB responding to treatments were calculated and 95% confidence intervals determined by using the Clopper-Pearson method. Id.

WTB [2] = assay: Six release rate experiment, 4-unit Lindgren funnel traps; format: in vivo, Pityophthorus juglandis; conditions: for trap catches, female WTB / trap catches, male WTB: N=99
Method: In a separate experiment, the flight response of WTB to six release rates of 3-methyl-2-buten-1-ol was tested at the same location in early summer. The six release rates were: 1) 165 mg/d, from a capped 15 ml polyethylene bottle with a 0.48 cm hole drilled in the side of the cap, charged with 15 ml 3-methyl-2-buten-1-ol (Sigma-Aldrich); 2) 15-80 mg/d from the commercial LDPE plastic pouch (Contech); 3) 5 mg/d from a capped 15 ml polyethylene bottle charged with 15 ml 3-methyl-2-buten-1-ol (Sigma-Aldrich); 4) 5 mg/d from a capped 15 ml polyethylene bottle charged with 1 ml 3-methyl-2-buten-1-ol (Sigma-Aldrich); 5) 0.2 mg/d from a 400 μl closed Eppendorf polyethylene microcentrifuge tube charged with 300 μl 3-methyl-2-buten-1-ol (Sigma-Aldrich); and 6) an unbaited control. The 15 ml polyethylene bottles were purchased from Contech Enterprises (product #100000582/583); the 400 μl polyethylene Eppendorf microcentrifuge tubes were purchased from Evergreen Scientific (product #214-3417-020, Los Angeles, Calif.). These release devices were attached to 4-unit Lindgren funnel traps as described above. The six treatments were replicated in three spatial blocks and the treatments were re-randomized among the six trap stations in a block each time the traps were emptied (nearly every day). Statistical Analyses. Analysis of treatment effects for the pouch vs. bottle experiment was done by using a sign test. (See Zar, J. H. 2010. Biostatistical Analysis. 5th ed. Pearson Prentice Hall, Englewood Cliffs, N.J.) The other four experiments were analyzed for treatment effect by using Friedman's non-parametric analysis of variance. Id. In all experiments, males and females were analyzed separately. All treatments within experiments yielding a significant treatment effect were compared by using an a posteriori Nemenyi test with experimentwise α=0.05. Id. For all experiments, differences among proportions of female WTB responding to treatments were analyzed by comparing 95% confidence intervals determined with the Clopper-Pearson method. Id.

Structure (SMILES): CC(C)=CCO [X, 3-methyl-2-buten-1-ol]
- trap catches, female WTB (WTB [1]; 4-unit Lindgren funnel trap): 231
- trap catches, male WTB (WTB [1]; 4-unit Lindgren funnel trap): 72
- proportion of females responding (WTB [1]; 4-unit trap): 0.76
- proportion of females responding (WTB [1]; 8-unit trap): 0.76
- trap catches, female WTB (WTB [1]; 8-unit trap): 634
- trap catches, male WTB (WTB [1]; 8-unit trap): 202
- proportion of females responding (WTB [1]; 12-unit trap): 0.72
- trap catches, female WTB (WTB [1]; 12-unit trap): 892
- trap catches, male WTB (WTB [1]; 12-unit trap): 352
- proportion of females responding (WTB [1]; 16-unit trap): 0.73
- trap catches, female WTB (WTB [1]; 16-unit trap): 618
- trap catches, male WTB (WTB [1]; 16-unit trap): 233
- trap catches, female WTB (WTB [1]; intercept panel trap): 296
- trap catches, male WTB (WTB [1]; intercept panel trap): 128
- proportion of females responding (WTB [1]; panel trap): 0.70
- proportion of females responding (WTB [2]; 0.2 mg/d): 0.66
- trap catches, female WTB (WTB [2]; 0.2 mg/d): 623
- trap catches, male WTB (WTB [2]; 0.2 mg/d): 323
- proportion of females responding (WTB [2]; 5 mg/d (1 ml load)): 0.71
- trap catches, female WTB (WTB [2]; 5 mg/d (1 ml load)): 1084
- trap catches, male WTB (WTB [2]; 5 mg/d (1 ml load)): 453
- proportion of females responding (WTB [2]; 5 mg/d (15 ml load)): 0.72
- trap catches, female WTB (WTB [2]; 5 mg/d (15 ml load)): 1534
- trap catches, male WTB (WTB [2]; 5 mg/d (15 ml load)): 608
- proportion of females responding (WTB [2]; 165 mg/d): 0.75
- trap catches, female WTB (WTB [2]; 165 mg/d (15 ml load)): 612
- trap catches, male WTB (WTB [2]; 165 mg/d (15 ml load)): 205
- proportion of females responding (WTB [2]; 15-80 mg/d): 0.77
- trap catches, female WTB (WTB [2]; 15-80 mg/d): 934
- trap catches, male WTB (WTB [2]; 15-80 mg/d): 285
- release rate giving highest flight response (WTB [2]; six release rates compared): highest response for both sexes was to the 5 mg/d release loaded with 15 ml of pheromone
